Data: patent EP3335764A1, “A STRAIN OF A[…] APPLICATIONS THEREOF” (Infinitec Activos S.L., priority 2016, dated 2018)

System: Prostaglandin E2 (PGE2)
Assay: Anti-inflammatory activity: PGE2 quantification by ELISA in cells stimulated by IL-1α
Type: cell-based
Conditions: IL-1α (5 pM), Cycloheximide 100 µg/ml
Method: When cells are stimulated by an inflammatory agent PGE2 is synthesized de novo and released into the extracellular space. Thus quantification of PGE2 is used to asses the anti-inflammatory activity products.
In the present example the anti-inflammatory activity of the extract of example 2 was determined by quantification of PGE2 in cells stimulated by IL-1α using a kit for an enzyme-linked immunosorbent assay (ELISA). The kit used was Prostaglandin E2 EIA kit Item n° 514010 from Cayman Chemical.
Prostaglandin E2 assay is based on competition between the PGE^2 to be determined and a fixed amount of added PGE2-acetylcholinesterase (AChE) conjugate (PGE2 tracer) for a limited amount of PGE2 monoclonal antibody. The amount of PGE2 tracer able to bind the PGE2 monoclonal antibody will be inversely proportional to the concentration of PGE2 in the well. Both the antibody-PGE2 complex and then antibody-PGE2 tracer complex bind to polyclonal goat anti-mouse IgG previously bound to the well. Then the plate is washed to remove any unbound reagent and Ellman's reagent is added to determine the amount of AChE bound to the well. […] The intensity of this color, determined by UV-Vis spectrophotometry, is proportional to the amount of PGE2 tracer bound […], which is inversely proportional to the amount of PGE2 present in the free well during incubation.

## C[C@@H]1C[C@@H]([C@H](O)CC2CC(=O)NC(=O)C2)C(=O)[C@@H](C)C1 [Cycloheximide]
  PGE2: 31.85 pg/mL
  inhibition at 100 µg/mL: 97.6%
